{"source": "patent US20140271926A1", "about": "“METHODS OF USE OF GLUTAMINE SYNTHETASE INHIBITORS” (CALIFORNIA INSTITUTE OF TECHNOLOGY, priority 2013, published 2014)", "key": {"[1]": {"tested_on": "glutamine synthetase (GS)", "assay": "Western blot of endogenous GS level in MM.1S cells", "type": "cell-based, human", "settings": "for steady-state level of GS: MM.1S cells, 2 mM glutamine, FIG. 5", "experimental": "The consequences of IMiD-enhanced ubiquitylation of GS on endogenous GS levels and stability in MM.1S cells were evaluated. […] The IMiD-triggered decline in GS protein was not due to a reduction in the mRNA level of GS (FIGS. 5 and 6). If IMiDs were added immediately after changing the growth medium, the suppression of GS was more profound, with a maximal effect seen at 0.1 μM pomalidomide (4-amino-thalidomide) (FIG. 7). […] To determine if IMiDs were affecting the stability of GS, cycloheximide chase experiments were performed. As known in the art, GS is an unstable protein (FIG. 9). […] The lenalidomide-induced downregulation of GS was blocked by the proteasome inhibitor MG132 (FIG. 11). Additionally, the lenalidomide-induced downregulation of GS was blunted upon depletion of CRBN by shRNA (FIG. 12).\nWestern blot analysis. […] After washing twice with ice-cold PBS, the cells were lysed in RIPA buffer (50 mM Tris-HCl, 150 mM NaCl, 1% Triton X-100, 1% Sodium deoxycholate, 0.1% SDS, [pH 7.5]) supplemented with complete protease inhibitor (Roche). Whole-cell protein extracts were prepared and quantified by the Bradford method (Bio-Rad, Hercules, Calif.). Equal amounts of protein (20-80 μg/lane) were electrophoretically separated on SDS-PAGE and transferred to a PVDF membrane. The membranes were blotted with indicated antibodies. Anti-rabbit or anti-mouse antibodies conjugated to horseradish peroxidase (Vector Labs) were used as secondary antibodies, and the signal was detected using a Super Signal West Pico Substrate kit (Fisher Scientific)."}, "[2]": {"tested_on": "FlagGS", "assay": "In vivo ubiquitylation assay of FlagGS in HEK293T cells", "type": "cell-based, human", "settings": "MG132 10 μM 3 hours, FIG. 13A", "description": "As mentioned above, GS is moderately unstable even in the absence of IMiDs. Specifically, seven lysine residues of GS are modified with ubiquitin in proteasome-inhibited cells, and modification of five of these sites is reduced upon inhibition of CRL activity with the NEDD8 conjugation inhibitor MLN4924. (Kim et al., 2011, Mol Cell., 44:325 and Emanuele et al., 2011, Cell, 147:459, the entire contents of both of which are herein incorporated by reference.) As such, the idea that the constitutive ubiquitylation and degradation of GS may be dependent on CRL4^CRBN was tested. In co-transfection assays, ^HAubiquitin was incorporated into ^FlagGS as determined by immunoprecipitation of ^FlagGS followed by immunoblotting with anti-HA (FIG. 13A). Additionally, ubiquitin-modified ^FlagGS accumulated in cells in which the proteasome was inhibited with the proteasome inhibitor MG132, but was almost entirely absent upon depletion of endogenous CRBN (depletion of CRBN was confirmed by immunoblot; FIG. 13B). […]\nIn vivo ubiquitylation assay. […] IP washing steps were performed using IP lysis buffer supplemented with 0.5 M NaCl Immunoprecipitated proteins were resolved by SDS/PAGE and analyzed by immunoblotting."}, "[3]": {"tested_on": "endogenous GS", "assay": "TUBE2 pull-down of ubiquitin conjugates, HEK293T cells", "type": "cell-based, human", "settings": "3 hours, FIG. 4; for GS ubiquitin conjugates: lenalidomide 30 μM or MG132 10 μM", "experimental": "TUBE (Tandem Ubiquitin Binding Entities) Pull-down. […] The cells were lysed in immunoprecipitation buffer (10 mM Tris [pH 7.5], 150 mM NaCl, 1% Triton X-100) containing a protease inhibitor cocktail, MG132 and 10 mM N-ethylmaleimide (NEM, Sigma). Whole-cell protein extracts were incubated with 20 μl of TUBE2 agarose beads (Boston Biochem) for 2-4 hours with rotation at 4° C. Beads were washed 3-5 times with lysis buffer, and bound proteins were eluted in SDS sample buffer and subjected to Western blot analysis."}, "[4]": {"tested_on": "GS", "settings": "five of seven ubiquitin-modified lysine sites; proteasome-inhibited cells; cited from earlier work"}, "[5]": {"settings": "clinical; cited from earlier work"}, "[6]": {"tested_on": "MM.1S cells", "assay": "Immunoblot of apoptosis biomarkers (cleaved caspase-3, PARP) in MM.1S cells", "type": "cell-based, human", "settings": "low concentrations of pomalidomide; 0.5 mM glutamine 72 hours; FIG. 26", "experimental": "Since the physiological concentration of glutamine in human plasma is 0.5 mM (not the 2 mM that is typically used in cell cultures), the impact of GS depletion on cells grown in 0.5 mM glutamine was evaluated. Cells transduced with GS shRNA-3 in 2 mM glutamine for 7 days and then the cells were shifted to 0.5 mM glutamine.\nIf IMiDs modulate the level of multiple proteins that are critical for proliferation of myeloma cells, then restoring any one protein would not be expected to allow proliferation in the presence of IMiDs. By contrast, it was reasoned that if degradation of GS contributes to the anti-myeloma effect of IMiDs, that reduction of GS levels by shRNA knockdown would enhance the effect of IMiDs at sub-saturating concentrations, resulting in enhanced efficacy. […]\nWestern blot analysis. […] Whole-cell protein extracts were prepared and quantified by the Bradford method (Bio-Rad, Hercules, Calif.). […] Anti-rabbit or anti-mouse antibodies conjugated to horseradish peroxidase (Vector Labs) were used as secondary antibodies, and the signal was detected using a Super Signal West Pico Substrate kit (Fisher Scientific)."}}, "note": "Residues, ends and D or L forms follow the SMILES beside them. *: point of attachment. Cbz = O=C(OCc1ccccc1)*"}
{"compound": "Nc1ccc2c(c1)C(=O)N(C1CCC(=O)NC1=O)C2=O", "note": "(stereo not shown) [5-amino-thalidomide]", "values": [{"measurement": "effect on GS protein levels", "setting": "[1]; MM.1S, FIG. 7", "result": "no effect"}]}
{"compound": "CC(C)C[C@@H](C=O)NC(=O)[C@H](CC(C)C)NC(=O)[C@H](CC(C)C)NC(=O)OCc1ccccc1", "note": "[MG132] (Cbz-Leu-Leu-Leu-aldehyde)", "values": [{"measurement": "ubiquitin-modified FlagGS", "setting": "[2]", "result": "accumulated"}, {"measurement": "lenalidomide-induced downregulation of GS in presence of proteasome inhibitor", "setting": "[1]; MM.1S, 0.5 μM MG132, 100 μM lenalidomide, FIG. 11", "result": "blocked"}, {"measurement": "GS ubiquitin conjugates", "setting": "[3]", "result": "increase"}]}
{"compound": "NS(=O)(=O)OC[C@@H]1C[C@@H](n2ccc3c(N[C@H]4CCc5ccccc54)ncnc32)C[C@@H]1O", "note": "[MLN4924]", "values": [{"measurement": "ubiquitin modification of GS lysine residues", "setting": "[4]", "result": "reduced"}]}
{"compound": "Nc1cccc2c1CN(C1CCC(=O)NC1=O)C2=O", "note": "(stereo not shown) [lenalidomide]", "values": [{"measurement": "steady-state level of GS", "setting": "[1]; 24 hours", "result": "marked, dose-dependent reduction"}, {"measurement": "time to substantial reduction of GS", "setting": "[1]; MM.1S, 100 μM lenalidomide, FIG. 8", "result": "≤ 4", "unit": "h"}, {"measurement": "lenalidomide-induced downregulation of GS upon depletion of CRBN by shRNA", "setting": "[1]; MM.1S, 24 hours, FIG. 12", "result": "blunted"}, {"measurement": "total cellular pool of ubiquitin conjugates", "setting": "[3]; 30 μM", "result": "essentially no effect"}, {"measurement": "GS ubiquitin conjugates", "setting": "[3]", "result": "increase"}, {"measurement": "Cmax", "setting": "[5]", "result": "~1500", "unit": "nM"}]}
{"compound": "Nc1cccc2c1C(=O)N(C1CCC(=O)NC1=O)C2=O", "note": "(stereo not shown) [pomalidomide, 4-amino-thalidomide]", "values": [{"measurement": "steady-state level of GS", "setting": "[1]; 24 hours", "result": "marked, dose-dependent reduction"}, {"measurement": "concentration giving maximal suppression of GS", "setting": "[1]; MM.1S, IMiDs added immediately after changing the growth medium, FIG. 7", "result": 0.1, "unit": "µM"}, {"measurement": "Cmax", "setting": "[5]", "result": "~275", "unit": "nM"}, {"measurement": "PARP cleavage in GS-depleted cells", "setting": "[6]", "result": "further accentuated"}, {"measurement": "PARP cleavage in non-depleted cells", "setting": "[6]", "result": "no effect"}]}
